# Measurements as given in article PMC10178848, “Modulating fast skeletal muscle contraction protects skeletal muscle in animal models of Duchenne muscular dystrophy” (The Journal of Clinical Investigation, 2023).
# System: mdx mouse EDL muscle
# Experiment: Phosphoprotein array analysis (Cell Signaling Phospho Antibody Array)
# Conditions: T vs C
# Protocol: mdx mouse EDL muscle was prepared for ex vivo analysis as described (n = 5). Muscles were incubated for 1 hour with DMSO or EDG-5506 (5 μM) and then flash frozen in liquid nitrogen. Tissue preparation and analysis were performed as recommended by the manufacturer (Cell Signaling Phospho Antibody Array, Full Moon Biosystems).
smiles,measurement,setting,value
O=c1ccc(-c2cnc(OCC(F)(F)F)nc2)nn1Cc1cncc(F)c1 [EDG-5506],Fold Change between Samples T/C: Tau (Phospho-Ser396),,0.90
same,Fold Change between Samples T/C: VEGFR2 (Phospho-Tyr1175),,0.84
same,Fold Change between Samples T/C: Zap-70 (Phospho-Tyr319),,1.04
same,Fold Change between Samples T/C: c-Jun (Phospho-Ser73),,0.91
same,Fold Change between Samples T/C: p44/42 MAP Kinase (Phospho-Tyr204),,0.88
same,Fold Change between Samples T/C: p53 (Phospho-Ser15),,0.20
same,Ratio (T/C): 4E-BP1 (Phospho-Thr45) to total 4E-BP1 (Ab-45),phospho/total,0.8337
same,Ratio (T/C): 14-3-3 theta/tau (Phospho-Ser232) to total 14-3-3 zeta/delta (Ab-232),phospho/total,0.9814
same,Ratio (T/C): ACC1 (Phospho-Ser80) to total ACC1 (Ab-80),phospho/total,0.9544
same,Ratio (T/C): AKT1 (Phospho-Ser473) to total AKT1 (Ab-308),phospho/total,0.8575
same,Ratio (T/C): AKT1S1 (Phospho-Thr246) to total AKT1S1 (Ab-246),phospho/total,1.16
same,Ratio (T/C): AMPKbeta1 (Phospho-Ser182) to total AMPKbeta1 (Ab-182),phospho/total,0.902
same,Ratio (T/C): ASK1 (Phospho-Ser966) to total ASK1 (Ab-966),phospho/total,0.799
same,Ratio (T/C): ATF2 (Phospho-Ser62/44) to total ATF2 (Ab-62/44),phospho/total,0.3856
same,Ratio (T/C): Abl1 (Phospho-Thr754/735) to total Abl1 (Ab-754/735),phospho/total,1.124
same,Ratio (T/C): Actin Pan(a/b/g) (Phospho-Tyr55/53) to total Actin Pan(a/b/g) (Ab-55/53),phospho/total,0.9642
same,Ratio (T/C): B-RAF (Phospho-Ser446) to total B-RAF (Ab-598),phospho/total,0.9669
same,Ratio (T/C): BAX (Phospho-Thr167) to total Bax,phospho/total,0.8854
same,Ratio (T/C): BCL-XL (Phospho-Ser62) to total BCL-XL (Ab-47),phospho/total,0.5743
same,Ratio (T/C): BID (Phospho-Ser78) to total BID (Ab-78),phospho/total,0.7661
same,Ratio (T/C): BLNK (Phospho-Tyr96) to total BLNK (Ab-96),phospho/total,0.53
same,Ratio (T/C): BRCA1 (Phospho-Ser1423) to total BRCA1 (Ab-1524),phospho/total,0.7749
same,Ratio (T/C): CDC25C (Phospho-Ser216) to total CDC25C (Ab-216),phospho/total,0.4323
same,Ratio (T/C): CDK1/CDC2 (Phospho-Tyr15) to total CDK1/CDC2 (Ab-15),phospho/total,0.7557
same,Ratio (T/C): CREB (Phospho-Ser133) to total CREB (Ab-133),phospho/total,1.041
same,Ratio (T/C): CaMK2-beta/gamma/delta (Phospho-Thr287) to total CaMK2-beta/gamma/delta (Ab-287),phospho/total,0.6524
same,Ratio (T/C): CaMK2A (Phospho-Thr286) to total CaMK2A (Ab-286),phospho/total,0.848
same,Ratio (T/C): Caspase 1 (Phospho-Ser376) to total Caspase 1 (Ab-376),phospho/total,0.6605
same,Ratio (T/C): Caspase 8 (Phospho-Ser347) to total Caspase 8 (Ab-347),phospho/total,1.051
same,Ratio (T/C): Caspase 9 (Phospho-Ser196) to total Caspase 9 (Ab-196),phospho/total,0.4054
same,Ratio (T/C): Catalase (Phospho-Tyr385) to total Catalase (Ab-385),phospho/total,0.7422
same,Ratio (T/C): Catenin beta (Phospho-Thr41/Ser45) to total Catenin beta (Ab-37),phospho/total,0.6858
same,Ratio (T/C): Chk1 (Phospho-Ser286) to total Chk1 (Ab-286),phospho/total,0.7615
same,Ratio (T/C): Chk2 (Phospho-Thr68) to total Chk2 (Ab-68),phospho/total,0.4403
same,Ratio (T/C): CrkII (Phospho-Tyr221) to total CrkII (Ab-221),phospho/total,0.7162
same,Ratio (T/C): Cyclin D1 (Phospho-Thr286) to total Cyclin D1 (Ab-286),phospho/total,1.068
same,Ratio (T/C): Cyclin E1 (Phospho-Thr77) to total Cyclin E1 (Ab-77),phospho/total,0.8189
same,Ratio (T/C): DARPP-32 (Phospho-Thr34) to total DARPP-32 (Ab-34),phospho/total,0.8988
same,Ratio (T/C): EEF2 (Phospho-Thr56) to total EEF2 (Ab-56),phospho/total,1.324
same,Ratio (T/C): EGFR (Phospho-Tyr869) to total EGFR (Ab-1172),phospho/total,1.314
same,Ratio (T/C): EGFR (Phospho-Tyr1172) to total EGFR (Ab-1172),phospho/total,0.9484
same,Ratio (T/C): Elk1 (Phospho-Ser383) to total Elk1 (Ab-389),phospho/total,0.8083
same,Ratio (T/C): FAK (Phospho-Ser910) to total FAK (Ab-910),phospho/total,0.6171
same,Ratio (T/C): FGFR1 (Phospho-Tyr654) to total FGFR1 (Ab-766),phospho/total,1.2323
same,Ratio (T/C): FKHRL1/FOXO3A (Phospho-Ser253) to total FKHRL1/FOXO3A (Ab-253),phospho/total,0.5092
same,Ratio (T/C): FOXO1/3/4-pan (Phospho-Thr24/32) to total FOXO1/3/4-pan (Ab-24/32),phospho/total,0.8412
same,Ratio (T/C): GRK2 (Phospho-Ser29) to total GRK2 (Ab-29),phospho/total,0.6549
same,Ratio (T/C): GSK3 beta (Phospho-Ser9) to total GSK3 beta,phospho/total,0.6837
same,Ratio (T/C): HDAC1 (Phospho-Ser421) to total HDAC1 (Ab-421),phospho/total,1.576
same,Ratio (T/C): HDAC2 (Phospho-Ser394) to total HDAC2 (Ab-394),phospho/total,0.8716
same,Ratio (T/C): HER2 (Phospho-Tyr1221/Tyr1222) to total HER2 (Ab-1221/1222),phospho/total,0.7289
same,Ratio (T/C): HER2 (Phospho-Tyr1248) to total HER2 (Ab-1221/1222),phospho/total,0.9858
same,Ratio (T/C): HSP27 (Phospho-Ser82) to total HSP27 (Ab-82),phospho/total,1.177
same,Ratio (T/C): HSP90B (Phospho-Ser226) to total HSP90B (Ab-254),phospho/total,0.9521
same,Ratio (T/C): IKK alpha/beta (Phospho-Ser180/181) to total IKK alpha/beta (Ab-180/181),phospho/total,0.9407
same,Ratio (T/C): IKK-beta (Phospho-Tyr188) to total IKK-beta (Ab-199),phospho/total,0.6267
same,Ratio (T/C): IKK-beta (Phospho-Tyr199) to total IKK-beta (Ab-199),phospho/total,0.8262
same,Ratio (T/C): IKK-gamma (Phospho-Ser31) to total IKK-gamma (Ab-31),phospho/total,1.02
same,Ratio (T/C): IL-4R/CD124 (Phospho-Tyr497) to total IL-4R/CD124 (Ab-497),phospho/total,0.9976
same,Ratio (T/C): IL-10R-alpha (Phospho-Tyr496) to total IL-10R-alpha (Ab-496),phospho/total,0.6514
same,Ratio (T/C): IRS-1 (Phospho-Ser312) to total IRS-1 (Ab-312),phospho/total,0.9305
same,Ratio (T/C): IkB-alpha (Phospho-Ser32/36) to total IkB-alpha (Ab-32/36),phospho/total,1.258
same,Ratio (T/C): IkB-epsilon (Phospho-Ser22) to total IkB-epsilon (Ab-22),phospho/total,0.98
